Assays:
[1] = target: human activated kallikrein enzyme (Homo sapiens, UniProt P03952); assay: Plasma kallikrein inhibition, fluorogenic PFR-AMC substrate, 500 pM activated kallikrein format; format: biochemical; settings: 500 pM activated kallikrein, 300 uM PFR-AMC, 30 min preincubation, 10 min reaction; read-out: Primary Dose Response Assay: Average EC50
Method in brief: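 Enzyme (500 pM) was preincubated with inhibitor for 30 min at room temperature in 20 mM Tris pH 7.5, 1 mM EDTA, 150 mM NaCl, 0.1% PEG-400 and 0.1% Triton X-100. The reaction was started with 300 uM PFR-AMC, run 10 min, and fluorescence read at 460 nm (380 nm excitation). EC50 derived.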

[2] = target: T1, plasma kallikrein (Homo sapiens, UniProt P03952); assay: Neat human plasma assay, FXIIa contact pathway-activated, PFR-AMC substrate; format: biochemical; settings: citrated human plasma 78% final, 10 nM human FXIIa, 100 μM PFR-AMC; read-out: Human Plasma Assay: IC90
T1 construct: from tissue
T1 sequence (P03952 391-638 limits assumed): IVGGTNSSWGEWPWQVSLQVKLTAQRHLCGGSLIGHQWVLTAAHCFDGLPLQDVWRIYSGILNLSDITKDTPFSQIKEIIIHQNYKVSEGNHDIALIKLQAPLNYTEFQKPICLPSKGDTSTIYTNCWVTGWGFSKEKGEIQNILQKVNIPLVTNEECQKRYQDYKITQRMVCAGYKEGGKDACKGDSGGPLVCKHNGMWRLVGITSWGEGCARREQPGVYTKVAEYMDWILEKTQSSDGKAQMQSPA
T1 sequence (P03952 20-390 partner limits assumed): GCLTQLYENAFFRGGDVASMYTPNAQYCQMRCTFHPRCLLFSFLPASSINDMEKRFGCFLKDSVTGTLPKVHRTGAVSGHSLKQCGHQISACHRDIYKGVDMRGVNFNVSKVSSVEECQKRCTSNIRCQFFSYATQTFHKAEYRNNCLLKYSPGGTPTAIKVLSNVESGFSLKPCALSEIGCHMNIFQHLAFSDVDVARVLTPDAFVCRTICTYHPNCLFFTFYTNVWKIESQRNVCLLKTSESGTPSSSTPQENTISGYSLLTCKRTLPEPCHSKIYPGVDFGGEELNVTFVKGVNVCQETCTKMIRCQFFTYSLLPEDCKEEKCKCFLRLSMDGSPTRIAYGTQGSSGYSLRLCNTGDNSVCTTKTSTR
Method in brief: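 Citrated human plasma (78% final) with compound, contact-activated by 10 nM human FXIIa in pKal buffer pH 7.5, with 100 μM PFR-AMC. Fluorescence (360/480 nm) followed 5 min at room temperature; rates versus concentration fitted by 4-parameter equation for IC50/IC90.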

human activated kallikrein enzyme, sequence (P03952 391-638 limits assumed): as the sequence (P03952 391-638 limits assumed) above
human activated kallikrein enzyme, sequence (P03952 20-390 partner limits assumed): as the sequence (P03952 20-390 partner limits assumed) above

SMILES | EC50 [1] | IC90 [2]
Cc1ccnc([C@H]2C[C@@H]2C(=O)Nc2cc(NCc3cn4cc(C5CC5)cc(-n5c(=O)n(C)c(=O)n5C)c4n3)ncn2)n1 [Example 367, (1S,2S)-N-(6-(((6-cyclopropyl-8-(2,4-dimethyl-3,5-dioxo-1,2,4-triazolidin-1-yl)imidazo[1,2-a]pyridin-2-yl)methyl)amino)pyrimidin-4-yl)-2-(4-methylpyrimidin-2-yl)cyclopropane-1-carboxamide] | < 1 nM | 400 to 1500 nM
O=C(Nc1cc(NCc2cn3cc(C4CC4)cc(N4CCNC(C(F)(F)F)C4)c3n2)ccn1)[C@H]1C[C@@H]1c1cccc(Cl)c1 (stereo partly drawn) [Example I-21, (1S,2S)-2-(3-chlorophenyl)-N-(4-(((6-cyclopropyl-8-(3-(trifluoromethyl)piperazin-1-yl)imidazo[1,2-a]pyridin-2-yl)methyl)amino)pyridin-2-yl)cyclopropane-1-carboxamide] | 1 to 10 nM | 1500 to 10000 nM
CC(C)(O)c1cc(C2CC2)cn2cc(CNc3ccnc(NC(=O)[C@H]4C[C@@H]4c4cc(Cl)ccc4C#N)c3)nc12 (racemic) [Example 131, rac-(1S*,2S*)-2-(5-chloro-2-cyanophenyl)-N-(4-(((6-cyclopropyl-8-(2-hydroxypropan-2-yl)imidazo[1,2-a]pyridin-2-yl)methyl)amino)pyridin-2-yl)cyclopropane-1-carboxamide] | < 1 nM | 10000 to 48000 nM
Cc1cc(NCc2cn3cc(C4CC4)ccc3n2)cc(NC(=O)[C@H]2C[C@@H]2c2cc(Cl)ccc2C#N)n1 (racemic) [Example 342, rac-(1S*,2S*)-2-(5-chloro-2-cyanophenyl)-N-(4-(((6-cyclopropylimidazo[1,2-a]pyridin-2-yl)methyl)amino)-6-methylpyridin-2-yl)cyclopropane-1-carboxamide] | < 1 nM | 1500 to 10000 nM
CN1CCN(c2cc(C3CC3)cn3cc(CNc4cc(NC(=O)[C@H]5C[C@@H]5c5cccc(Cl)c5)ccn4)nc23)CC1 [Example I-243, (1S,2S)-2-(3-chlorophenyl)-N-(2-(((6-cyclopropyl-8-(4-methylpiperazin-1-yl)imidazo[1,2-a]pyridin-2-yl)methyl)amino)pyridin-4-yl)cyclopropane-1-carboxamide] | < 1 nM | 400 to 1500 nM
Cc1ccnc([C@H]2C[C@@H]2C(=O)Nc2cc(NC(C)c3cn4cc(C5CC5)cc(N5CCN(C)C5=O)c4n3)nc(C)n2)n1 (stereo partly drawn) [Example 364, (1S,2S)-N-(6-((1-(6-cyclopropyl-8-(3-methyl-2-oxoimidazolidin-1-yl)imidazo[1,2-a]pyridin-2-yl)ethyl)amino)-2-methylpyrimidin-4-yl)-2-(4-methylpyrimidin-2-yl)cyclopropane-1-carboxamide] | < 1 nM | 400 to 1500 nM
Cc1cc(N2CC(=O)N(C)C2=O)c2nc([C@@H](C)Nc3cc(NC(=O)[C@H]4C[C@@H]4c4nccc(C)n4)nc(C)n3)cn2c1 [Example 434, (1S,2S)-N-(2-methyl-6-(((R)-1-(6-methyl-8-(3-methyl-2,4-dioxoimidazolidin-1-yl)imidazo[1,2-a]pyridin-2-yl)ethyl)amino)pyrimidin-4-yl)-2-(4-methylpyrimidin-2-yl)cyclopropane-1-carboxamide] | < 1 nM | < 400 nM
COc1nc(NC(=O)[C@H]2C[C@@H]2c2nccc(C)n2)cc(N[C@H](C)c2cn3cc(C4CC4)cc(N4CC(=O)N(C)C4=O)c3n2)n1 [Example 407, (1S,2S)-N-(6-(((R)-1-(6-cyclopropyl-8-(3-methyl-2,4-dioxoimidazolidin-1-yl)imidazo[1,2-a]pyridin-2-yl)ethyl)amino)-2-methoxypyrimidin-4-yl)-2-(4-methylpyrimidin-2-yl)cyclopropane-1-carboxamide] | < 1 nM | 400 to 1500 nM
Cc1ccnc([C@H]2C[C@@H]2C(=O)Nc2cc(NCc3cn4cc(C5CC5)cc(N5CC(=O)N(C)C5=O)c4n3)nc(C(F)F)n2)n1 (racemic) [Example 411, rac-(1S*,2S*)-N-(6-(((6-cyclopropyl-8-(3-methyl-2,4-dioxoimidazolidin-1-yl)imidazo[1,2-a]pyridin-2-yl)methyl)amino)-2-(difluoromethyl)pyrimidin-4-yl)-2-(4-methylpyrimidin-2-yl)cyclopropane-1-carboxamide] | < 1 nM | < 400 nM
O=C(Nc1cc(NCc2cn3cc(C4CC4)cc(N4CCOC4=O)c3n2)ncn1)[C@H]1C[C@@H]1c1cc(Cl)ccn1 [Example I-172, (1S,2S)-2-(4-chloropyridin-2-yl)-N-(6-(((6-cyclopropyl-8-(2-oxooxazolidin-3-yl)imidazo[1,2-a]pyridin-2-yl)methyl)amino)pyrimidin-4-yl)cyclopropane-1-carboxamide] | < 1 nM | 400 to 1500 nM
O=C(Nc1cc(NCc2cn3cc(C4CC4)cc(N4C[C@@H](O)CC4=O)c3n2)ncn1)[C@H]1C[C@@H]1c1cccc(Cl)c1 (relative stereo) [Example 62, (rac-(1S*,2S*))-2-(3-chlorophenyl)-N-(6-(((6-cyclopropyl-8-((S)-4-hydroxy-2-oxopyrrolidin-1-yl)imidazo[1,2-a]pyridin-2-yl)methyl)amino)pyrimidin-4-yl)cyclopropane-1-carboxamide] | 1 to 10 nM | 1500 to 10000 nM
O=C(Nc1cc(NCc2cn3cc(C4CC4)cc(C(=O)N4CCNCC4)c3n2)ncn1)[C@H]1C[C@@H]1c1cccc(Cl)c1 [Example 304, (1S,2S)-2-(3-chlorophenyl)-N-(6-(((6-cyclopropyl-8-(piperazine-1-carbonyl)imidazo[1,2-a]pyridin-2-yl)methyl)amino)pyrimidin-4-yl)cyclopropane-1-carboxamide] | < 1 nM | < 400 nM
CC(O)c1cc(C2CC2)cn2cc(CNc3ccnc(NC(=O)[C@H]4C[C@@H]4c4cccc(Cl)c4)c3)nc12 (stereo partly drawn) [Example I-236, (1S,2S)-2-(3-chlorophenyl)-N-(4-(((6-cyclopropyl-8-(1-hydroxyethyl)imidazo[1,2-a]pyridin-2-yl)methyl)amino)pyridin-2-yl)cyclopropane-1-carboxamide] | < 1 nM | > 48000 nM
Cc1ccnc([C@H]2C[C@@H]2C(=O)Nc2cc(OCc3cn4cc(C5CC5)cc(N5CC(=O)N(CCO)C5=O)c4n3)ncn2)n1 (racemic) [Example 33, rac-(1S*,2S*)—N-(6-((6-cyclopropyl-8-(3-(2-hydroxyethyl)-2,4-dioxoimidazolidin-1-yl)imidazo[1,2-a]pyridin-2-yl)methoxy)pyrimidin-4-yl)-2-(4-methylpyrimidin-2-yl)cyclopropane-1-carboxamide] | < 1 nM | 400 to 1500 nM
Cc1ccnc([C@H]2C[C@@H]2C(=O)Nc2cc(N(C)Cc3cn4cc(C5CC5)cc(N5CC(=O)N(C)C5=O)c4n3)ncn2)n1 (racemic) [Example 387, rac-(1S*,2S*)-N-(6-(((6-cyclopropyl-8-(3-methyl-2,4-dioxoimidazolidin-1-yl)imidazo[1,2-a]pyridin-2-yl)methyl)(methyl)amino)pyrimidin-4-yl)-2-(4-methylpyrimidin-2-yl)cyclopropane-1-carboxamide] | < 1 nM | < 400 nM
O=C(Nc1cc(NCc2cn3cc(C4CC4)cc(N4CCN(C5CC5)CC4)c3n2)ccn1)[C@H]1C[C@@H]1c1cccc(Cl)c1 [Example I-232, (1S,2S)-2-(3-chlorophenyl)-N-(4-(((6-cyclopropyl-8-(4-cyclopropylpiperazin-1-yl)imidazo[1,2-a]pyridin-2-yl)methyl)amino)pyridin-2-yl)cyclopropane-1-carboxamide] | < 1 nM | 1500 to 10000 nM
Cc1cc(OCc2cn3cc(C4CC4)cc(N4CC(=O)N(C)C4=O)c3n2)cc(NC(=O)[C@H]2C[C@@H]2c2nccc(C)n2)n1 [Example 34, (1S,2S)—N-(4-((6-cyclopropyl-8-(3-methyl-2,4-dioxoimidazolidin-1-yl)imidazo[1,2-a]pyridin-2-yl)methoxy)-6-methylpyridin-2-yl)-2-(4-methylpyrimidin-2-yl)cyclopropane-1-carboxamide] | < 1 nM | < 400 nM
COc1cc(N2CC(=O)N(C)C2=O)c2nc([C@@H](C)Nc3cc(NC(=O)[C@H]4C[C@@H]4c4nccc(C)n4)ncn3)cn2c1 [Example 415, (1S,2S)-N-(6-(((R)-1-(6-methoxy-8-(3-methyl-2,4-dioxoimidazolidin-1-yl)imidazo[1,2-a]pyridin-2-yl)ethyl)amino)pyrimidin-4-yl)-2-(4-methylpyrimidin-2-yl)cyclopropane-1-carboxamide] | < 1 nM | < 400 nM
O=C(Nc1cc(NCc2cn3cc(C4CC4)cc(NC4COC4)c3n2)ccn1)[C@H]1C[C@@H]1c1cccc(Cl)c1 [Example I-26, (1S,2S)-2-(3-chlorophenyl)-N-(4-(((6-cyclopropyl-8-(oxetan-3-ylamino)imidazo[1,2-a]pyridin-2-yl)methyl)amino)pyridin-2-yl)cyclopropane-1-carboxamide] | < 1 nM | 1500 to 10000 nM
O=C(Nc1cc(NCc2cn3cc(C4CC4)cc(N4CC5CC5C4=O)c3n2)ncn1)[C@H]1C[C@@H]1c1cc(Cl)ccn1 (stereo partly drawn) [Example 327, (1S,2S)-2-(4-chloropyridin-2-yl)-N-(6-(((6-cyclopropyl-8-(2-oxo-3-azabicyclo[3.1.0]hexan-3-yl)imidazo[1,2-a]pyridin-2-yl)methyl)amino)pyrimidin-4-yl)cyclopropane-1-carboxamide] | < 1 nM | < 400 nM
Cc1ccnc([C@H]2C[C@@H]2C(=O)Nc2cc(N[C@H](C)c3cn4cc(C5CC5)cc(N5CC(=O)N(C)C5=O)c4n3)ncn2)n1 (single isomer, unassigned) [Example 451] | < 1 nM | 400 to 1500 nM
